Values belong to the compound of their own block, whether it stands above or below them.
Tests used:
[1] = target: Receptor-type tyrosine-protein kinase FLT3 (Homo sapiens) (UniProt P36888); settings: at 10 µM
[2] = target: Dual specificity mitogen-activated protein kinase kinase 2 (Homo sapiens) (UniProt P36507); test: Selectivity interaction (ActivX KiNativ screen (kinase selectivity in THP-1 cell lysates)) EUB0000639a MAP2K2; assay type: subcellular; settings: lysate, at 0.04 µM
[3] = target: Serine/threonine-protein kinase WNK2 (Homo sapiens) (UniProt Q9Y3S1); test: Selectivity interaction (ActivX KiNativ screen (kinase selectivity in THP-1 cell lysates)) EUB0000639a WNK2; assay type: subcellular; settings: lysate, at 0.01 µM
Sequence of Serine/threonine-protein kinase WNK2 (Homo sapiens) (Q9Y3S1 whole entry): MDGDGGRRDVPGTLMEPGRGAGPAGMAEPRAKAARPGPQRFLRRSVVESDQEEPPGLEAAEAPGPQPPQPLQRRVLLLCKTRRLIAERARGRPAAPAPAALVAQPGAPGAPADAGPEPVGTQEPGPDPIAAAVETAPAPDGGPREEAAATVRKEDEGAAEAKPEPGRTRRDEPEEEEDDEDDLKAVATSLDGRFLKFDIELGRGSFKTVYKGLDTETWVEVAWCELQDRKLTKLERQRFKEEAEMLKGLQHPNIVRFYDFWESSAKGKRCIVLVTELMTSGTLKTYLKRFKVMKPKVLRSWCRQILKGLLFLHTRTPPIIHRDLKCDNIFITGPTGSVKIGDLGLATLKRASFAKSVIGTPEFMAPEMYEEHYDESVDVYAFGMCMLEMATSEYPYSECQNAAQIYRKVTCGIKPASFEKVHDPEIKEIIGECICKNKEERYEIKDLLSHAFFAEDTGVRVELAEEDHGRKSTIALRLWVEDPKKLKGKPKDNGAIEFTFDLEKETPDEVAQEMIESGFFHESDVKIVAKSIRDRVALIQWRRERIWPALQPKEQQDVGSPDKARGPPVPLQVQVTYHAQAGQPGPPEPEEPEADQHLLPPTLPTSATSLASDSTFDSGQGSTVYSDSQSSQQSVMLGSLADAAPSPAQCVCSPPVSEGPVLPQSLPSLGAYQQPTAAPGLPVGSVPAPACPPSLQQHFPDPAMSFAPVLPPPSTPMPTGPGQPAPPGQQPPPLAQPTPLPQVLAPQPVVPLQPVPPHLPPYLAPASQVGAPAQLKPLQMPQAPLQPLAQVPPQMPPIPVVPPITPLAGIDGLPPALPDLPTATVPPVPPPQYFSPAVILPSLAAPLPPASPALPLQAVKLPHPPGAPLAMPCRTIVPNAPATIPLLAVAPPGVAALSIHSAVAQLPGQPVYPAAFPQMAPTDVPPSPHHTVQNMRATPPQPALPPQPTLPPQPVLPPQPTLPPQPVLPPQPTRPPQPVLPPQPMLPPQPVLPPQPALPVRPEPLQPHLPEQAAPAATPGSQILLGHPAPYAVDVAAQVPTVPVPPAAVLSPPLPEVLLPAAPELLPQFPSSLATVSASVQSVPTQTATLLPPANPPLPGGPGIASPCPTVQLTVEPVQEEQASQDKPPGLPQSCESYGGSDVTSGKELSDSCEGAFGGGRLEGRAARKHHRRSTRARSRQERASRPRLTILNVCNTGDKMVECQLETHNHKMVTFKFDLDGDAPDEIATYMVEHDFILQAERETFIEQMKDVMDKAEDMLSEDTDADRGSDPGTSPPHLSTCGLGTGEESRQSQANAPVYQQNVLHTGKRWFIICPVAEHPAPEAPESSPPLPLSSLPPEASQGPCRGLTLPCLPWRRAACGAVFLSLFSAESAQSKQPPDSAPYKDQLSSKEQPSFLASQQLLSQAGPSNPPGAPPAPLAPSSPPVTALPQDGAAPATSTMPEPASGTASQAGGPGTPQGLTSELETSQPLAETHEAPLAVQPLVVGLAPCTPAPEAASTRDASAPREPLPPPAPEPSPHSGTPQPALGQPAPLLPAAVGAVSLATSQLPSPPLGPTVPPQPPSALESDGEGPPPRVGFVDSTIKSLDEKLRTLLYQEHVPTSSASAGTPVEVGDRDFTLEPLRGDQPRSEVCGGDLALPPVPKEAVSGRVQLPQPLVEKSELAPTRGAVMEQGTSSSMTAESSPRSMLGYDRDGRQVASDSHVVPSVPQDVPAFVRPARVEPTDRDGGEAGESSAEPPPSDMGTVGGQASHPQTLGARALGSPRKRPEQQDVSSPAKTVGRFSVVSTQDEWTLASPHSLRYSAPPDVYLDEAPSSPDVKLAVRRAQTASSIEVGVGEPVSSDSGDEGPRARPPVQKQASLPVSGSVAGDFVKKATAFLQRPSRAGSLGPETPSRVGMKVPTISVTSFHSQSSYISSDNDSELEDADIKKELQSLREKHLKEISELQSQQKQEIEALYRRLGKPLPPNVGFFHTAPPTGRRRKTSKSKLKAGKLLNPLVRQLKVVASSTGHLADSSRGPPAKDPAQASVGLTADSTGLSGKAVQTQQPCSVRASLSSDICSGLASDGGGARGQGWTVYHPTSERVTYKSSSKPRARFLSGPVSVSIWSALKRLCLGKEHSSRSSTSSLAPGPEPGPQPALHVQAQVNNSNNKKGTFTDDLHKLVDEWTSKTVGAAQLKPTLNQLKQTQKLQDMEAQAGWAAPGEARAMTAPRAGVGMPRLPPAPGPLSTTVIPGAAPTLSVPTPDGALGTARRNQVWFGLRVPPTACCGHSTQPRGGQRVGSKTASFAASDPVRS

[4] = target: T1, Serine/threonine-protein kinase ULK1 (Homo sapiens) (UniProt O75385); test: Selectivity interaction (ActivX KiNativ screen (kinase selectivity in THP-1 cell lysates)) EUB0000639a ULK1; assay type: subcellular; settings: lysate, at 0.01 µM
T1 sequence (whole entry): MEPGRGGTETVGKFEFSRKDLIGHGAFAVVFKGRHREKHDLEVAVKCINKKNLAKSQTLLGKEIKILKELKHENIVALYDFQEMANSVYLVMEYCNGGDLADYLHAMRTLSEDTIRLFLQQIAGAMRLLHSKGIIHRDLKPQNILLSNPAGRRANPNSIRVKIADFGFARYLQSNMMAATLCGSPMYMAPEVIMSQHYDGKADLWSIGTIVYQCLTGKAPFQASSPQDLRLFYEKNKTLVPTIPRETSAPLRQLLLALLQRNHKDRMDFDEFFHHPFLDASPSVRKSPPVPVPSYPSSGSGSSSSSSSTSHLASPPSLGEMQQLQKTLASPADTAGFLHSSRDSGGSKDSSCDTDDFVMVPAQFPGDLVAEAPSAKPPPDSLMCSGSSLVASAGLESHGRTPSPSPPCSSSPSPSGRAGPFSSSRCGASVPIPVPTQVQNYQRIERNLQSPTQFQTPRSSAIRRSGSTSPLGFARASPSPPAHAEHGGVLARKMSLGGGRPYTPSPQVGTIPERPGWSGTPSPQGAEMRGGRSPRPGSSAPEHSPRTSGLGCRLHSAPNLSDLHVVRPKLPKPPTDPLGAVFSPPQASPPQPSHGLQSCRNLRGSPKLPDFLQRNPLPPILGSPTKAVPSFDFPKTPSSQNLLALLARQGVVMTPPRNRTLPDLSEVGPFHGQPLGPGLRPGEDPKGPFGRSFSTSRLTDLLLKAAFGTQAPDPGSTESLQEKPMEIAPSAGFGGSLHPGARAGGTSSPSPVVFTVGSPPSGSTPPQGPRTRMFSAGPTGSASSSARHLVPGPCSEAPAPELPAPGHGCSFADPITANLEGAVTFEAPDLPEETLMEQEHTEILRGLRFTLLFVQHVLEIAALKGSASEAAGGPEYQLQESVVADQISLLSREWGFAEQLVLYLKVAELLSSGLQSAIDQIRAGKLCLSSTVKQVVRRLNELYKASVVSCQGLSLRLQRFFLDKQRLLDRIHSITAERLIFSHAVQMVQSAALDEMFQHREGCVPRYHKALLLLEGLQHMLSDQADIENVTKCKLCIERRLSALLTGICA

[5] = target: STE20-like serine/threonine-protein kinase (Homo sapiens, UniProt Q9H2G2); test: Selectivity interaction (ActivX KiNativ screen (kinase selectivity in THP-1 cell lysates)) EUB0000639a SLK; assay type: subcellular; settings: lysate, at 0.2 µM
Sequence of STE20-like serine/threonine-protein kinase (Q9H2G2 whole entry, looked up): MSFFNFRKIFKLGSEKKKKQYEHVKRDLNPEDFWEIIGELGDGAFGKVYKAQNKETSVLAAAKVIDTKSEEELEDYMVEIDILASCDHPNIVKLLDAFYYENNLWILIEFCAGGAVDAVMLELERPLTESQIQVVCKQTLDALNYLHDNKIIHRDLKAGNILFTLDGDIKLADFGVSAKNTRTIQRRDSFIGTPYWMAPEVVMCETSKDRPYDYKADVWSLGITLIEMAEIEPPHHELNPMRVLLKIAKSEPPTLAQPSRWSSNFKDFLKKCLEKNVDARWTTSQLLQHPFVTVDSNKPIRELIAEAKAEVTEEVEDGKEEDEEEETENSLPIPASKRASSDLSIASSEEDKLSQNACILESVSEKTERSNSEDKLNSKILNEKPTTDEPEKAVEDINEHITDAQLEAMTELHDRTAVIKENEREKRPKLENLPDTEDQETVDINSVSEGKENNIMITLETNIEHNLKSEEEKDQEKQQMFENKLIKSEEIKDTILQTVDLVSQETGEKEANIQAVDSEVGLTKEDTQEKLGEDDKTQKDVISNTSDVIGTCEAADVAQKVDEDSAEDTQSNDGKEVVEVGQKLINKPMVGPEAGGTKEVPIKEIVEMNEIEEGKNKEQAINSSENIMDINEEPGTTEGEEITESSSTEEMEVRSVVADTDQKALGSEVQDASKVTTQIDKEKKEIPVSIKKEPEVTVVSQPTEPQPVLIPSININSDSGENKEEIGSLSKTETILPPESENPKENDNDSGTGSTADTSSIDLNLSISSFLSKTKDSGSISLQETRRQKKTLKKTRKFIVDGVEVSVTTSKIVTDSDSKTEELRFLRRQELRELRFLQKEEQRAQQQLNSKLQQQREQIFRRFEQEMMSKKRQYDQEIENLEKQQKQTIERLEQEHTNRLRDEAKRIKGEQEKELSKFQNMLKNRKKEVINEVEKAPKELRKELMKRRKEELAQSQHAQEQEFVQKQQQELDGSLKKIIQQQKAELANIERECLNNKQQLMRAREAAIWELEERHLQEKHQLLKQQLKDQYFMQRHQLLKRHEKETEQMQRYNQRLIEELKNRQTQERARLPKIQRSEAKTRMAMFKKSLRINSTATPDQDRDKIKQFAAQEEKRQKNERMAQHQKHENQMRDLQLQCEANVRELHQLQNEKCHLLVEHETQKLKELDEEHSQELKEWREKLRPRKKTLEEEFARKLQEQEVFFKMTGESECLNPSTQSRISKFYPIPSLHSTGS

[6] = target: Fibroblast growth factor receptor 3 (Homo sapiens, UniProt P22607); test: Selectivity interaction (Millipore kinase profiler) EUB0000124b FGFR3; settings: at 10 µM
Sequence of Fibroblast growth factor receptor 3 (P22607 23-806 limits assumed): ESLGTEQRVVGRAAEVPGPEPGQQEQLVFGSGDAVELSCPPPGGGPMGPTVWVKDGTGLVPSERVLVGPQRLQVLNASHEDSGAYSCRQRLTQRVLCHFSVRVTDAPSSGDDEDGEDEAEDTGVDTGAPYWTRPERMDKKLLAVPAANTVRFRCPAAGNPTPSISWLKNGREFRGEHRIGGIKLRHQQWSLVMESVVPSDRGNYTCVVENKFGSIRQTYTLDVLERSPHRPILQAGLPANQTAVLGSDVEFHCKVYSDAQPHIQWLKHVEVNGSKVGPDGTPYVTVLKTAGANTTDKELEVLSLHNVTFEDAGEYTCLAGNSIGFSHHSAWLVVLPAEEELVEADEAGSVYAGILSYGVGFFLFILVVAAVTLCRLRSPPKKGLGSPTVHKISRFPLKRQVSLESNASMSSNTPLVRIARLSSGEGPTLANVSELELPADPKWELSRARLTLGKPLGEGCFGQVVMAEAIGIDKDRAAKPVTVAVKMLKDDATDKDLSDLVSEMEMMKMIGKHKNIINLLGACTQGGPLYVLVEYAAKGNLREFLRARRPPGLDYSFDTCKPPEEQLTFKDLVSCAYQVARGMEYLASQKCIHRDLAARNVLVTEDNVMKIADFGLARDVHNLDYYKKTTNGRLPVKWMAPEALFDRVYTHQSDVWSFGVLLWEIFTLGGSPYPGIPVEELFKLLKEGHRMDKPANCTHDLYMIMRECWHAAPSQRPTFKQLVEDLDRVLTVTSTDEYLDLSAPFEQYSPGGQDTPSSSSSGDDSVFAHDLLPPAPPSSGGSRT

[7] = target: Casein kinase I isoform gamma-2 (Homo sapiens) (UniProt P78368); test: Selectivity interaction (KinomeScan (DiscoverX)) EUB0001079a CSNK1G2; settings: at 1 µM
Sequence of Casein kinase I isoform gamma-2 (Homo sapiens) (P78368 whole entry, looked up, canonical isoform): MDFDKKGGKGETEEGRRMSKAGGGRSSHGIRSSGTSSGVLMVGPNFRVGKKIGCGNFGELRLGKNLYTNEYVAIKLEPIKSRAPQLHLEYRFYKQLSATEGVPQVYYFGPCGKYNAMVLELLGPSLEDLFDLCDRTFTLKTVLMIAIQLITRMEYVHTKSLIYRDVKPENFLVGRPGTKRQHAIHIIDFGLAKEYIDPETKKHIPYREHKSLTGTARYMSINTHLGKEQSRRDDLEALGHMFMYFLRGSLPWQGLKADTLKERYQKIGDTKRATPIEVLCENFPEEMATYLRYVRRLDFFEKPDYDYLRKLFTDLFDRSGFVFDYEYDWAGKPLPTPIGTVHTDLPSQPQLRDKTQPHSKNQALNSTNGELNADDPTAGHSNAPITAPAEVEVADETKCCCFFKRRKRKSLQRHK

[8] = target: Dual specificity mitogen-activated protein kinase kinase 2 (Homo sapiens) (UniProt P36507); test: Selectivity interaction (KinomeScan (DiscoverX)) EUB0000092b MAP2K2; settings: at 10 µM
[9] = target: T2, Serine/threonine-protein kinase LATS2 (Homo sapiens) (UniProt Q9NRM7); test: Selectivity interaction (KinomeScan (DiscoverX)) EUB0001619a LATS2; settings: at 1 µM
T2 sequence (whole entry): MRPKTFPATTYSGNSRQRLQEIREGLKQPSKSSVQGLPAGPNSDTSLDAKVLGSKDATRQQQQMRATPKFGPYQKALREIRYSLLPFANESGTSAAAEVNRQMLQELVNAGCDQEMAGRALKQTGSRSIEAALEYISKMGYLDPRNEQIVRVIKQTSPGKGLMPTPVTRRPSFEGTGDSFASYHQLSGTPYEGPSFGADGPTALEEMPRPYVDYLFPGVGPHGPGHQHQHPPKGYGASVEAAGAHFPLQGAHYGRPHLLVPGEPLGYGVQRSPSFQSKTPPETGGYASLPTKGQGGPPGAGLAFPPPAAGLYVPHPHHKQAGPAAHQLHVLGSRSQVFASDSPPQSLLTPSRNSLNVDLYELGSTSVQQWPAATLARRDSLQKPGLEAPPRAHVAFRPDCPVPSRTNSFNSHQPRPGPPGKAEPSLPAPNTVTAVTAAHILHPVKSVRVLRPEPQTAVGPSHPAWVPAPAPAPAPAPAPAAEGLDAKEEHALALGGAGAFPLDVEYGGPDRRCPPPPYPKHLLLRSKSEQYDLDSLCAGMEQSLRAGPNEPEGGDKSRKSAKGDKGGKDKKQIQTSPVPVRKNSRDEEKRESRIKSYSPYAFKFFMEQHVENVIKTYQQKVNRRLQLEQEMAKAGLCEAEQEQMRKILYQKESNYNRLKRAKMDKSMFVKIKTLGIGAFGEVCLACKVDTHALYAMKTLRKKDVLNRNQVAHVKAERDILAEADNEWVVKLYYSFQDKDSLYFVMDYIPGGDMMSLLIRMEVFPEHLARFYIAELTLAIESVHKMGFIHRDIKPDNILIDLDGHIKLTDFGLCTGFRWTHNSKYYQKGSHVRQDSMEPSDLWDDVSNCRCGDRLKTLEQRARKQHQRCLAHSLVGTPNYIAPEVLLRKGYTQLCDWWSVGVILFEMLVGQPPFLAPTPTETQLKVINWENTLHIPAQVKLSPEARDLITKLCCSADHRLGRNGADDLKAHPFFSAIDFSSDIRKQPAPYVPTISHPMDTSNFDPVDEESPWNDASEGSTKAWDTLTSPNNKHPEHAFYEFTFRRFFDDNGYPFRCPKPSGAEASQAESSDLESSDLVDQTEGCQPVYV

Sequence of Dual specificity mitogen-activated protein kinase kinase 2 (Homo sapiens) (P36507 whole entry): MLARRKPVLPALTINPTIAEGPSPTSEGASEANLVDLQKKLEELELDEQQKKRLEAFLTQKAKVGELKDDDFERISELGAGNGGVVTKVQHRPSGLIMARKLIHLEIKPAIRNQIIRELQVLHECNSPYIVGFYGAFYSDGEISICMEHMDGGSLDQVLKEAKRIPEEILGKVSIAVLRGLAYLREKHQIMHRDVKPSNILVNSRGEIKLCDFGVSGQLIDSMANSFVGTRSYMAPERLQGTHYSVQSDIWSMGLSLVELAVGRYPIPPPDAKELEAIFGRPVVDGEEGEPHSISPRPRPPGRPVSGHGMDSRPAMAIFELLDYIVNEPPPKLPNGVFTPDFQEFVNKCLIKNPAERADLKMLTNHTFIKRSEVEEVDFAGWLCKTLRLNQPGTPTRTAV

- % of control [1]: 100%
Compound: CCN(CC)CCCCNc1ncc2cc(-c3cc(OC)cc(OC)c3)c(NC(=O)NC(C)(C)C)nc2n1

- % of inhibition [2]: -38.8%
- % of inhibition [3]: 3.3%
- % of inhibition [4]: -5.9%
- % of inhibition [5]: -1.2%
Compound: CC[C@@H]1[C@H](F)C(=O)N[C@@H]1COc1nccc2cc(C(N)=O)c(OC)cc12 [ZIMLOVISERTIB]

- % of control [6]: 98%
Compound: CC(=O)Nc1cccc(-n2c(=O)n(C3CC3)c(=O)c3c(Nc4ccc(I)cc4F)n(C)c(=O)c(C)c32)c1

Compound: Nc1cnc(N2CCc3cc(S(=O)(=O)Nc4c(F)cc(Cl)cc4F)cc(N4CCCC4=O)c32)nc1 [TP-020n]
- % of control [7]: 88%

Compound: CCC(=O)N1CCN(c2ccc(-n3c(=O)ccc4cnc5ccc(-c6cnc7ccccc7c6)cc5c43)cc2C(F)(F)F)CC1
- % of control [8]: 100%

Compound: N#Cc1cccc(-c2c[nH]c3ncnc(N4CCOCC4)c23)c1
- % of control [9]: 87%

From ChEMBL document CHEMBL5465560, “Selectivity Literature for EUbOPEN Chemogenomic Library” (2024)
